The source of these data is patent US8535696B2, “Treating eczema and/or psoriasis” (Lypanosys Pte Limited, priority 2000, dated 2013).

For assay [1] the following is noted: laboratory experiments, www.gcinutrients.com; cited from earlier work.
Assay [2] is described as follows: Trials with patients using dosage forms of cetyl myristate alone or with cetyl palmitate. The class given is in vivo, human. The conditions noted are these: variety of patients, cetyl myristate alone.

With `CCCCCCCCCCCCCCCCOC(=O)CCCCCCCCCCCCC` [cetyl myristate], the anti-arthritic activity entry in assay [1] is given as “negligible”. Moreover, in assay [2], the “relief from the symptoms of IBS and/or IBD” value was “favourable responses”.
